# The source made the active and inactive calls. The calls are words filed in the database; no cut-off is given here.
# Legend:
# [1] = biological target: T1, Protein cereblon/CREB-binding protein (Homo sapiens) (UniProt Q92793+Q96SW2); assay: PROTAC activity at CRBN/HiBiT-tagged CBP in human HAP1 cells assessed as total cumulative degradation by measuring AUC at 0.01 nM measured over 24 hrs by luminescence based analysis; assay type: cell-based
# [2] = biological target: T1, Protein cereblon/CREB-binding protein (Homo sapiens); assay: PROTAC activity at CRBN/HiBiT-tagged CBP in human HAP1 cells assessed as total cumulative degradation by measuring AUC at 0.1 nM measured over 24 hrs by luminescence based analysis; assay type: cell-based
# [3] = biological target: T1, Protein cereblon/CREB-binding protein (Homo sapiens); assay: PROTAC activity at CRBN/HiBiT-tagged CBP in human HAP1 cells assessed as total cumulative degradation by measuring AUC at 1 nM measured over 24 hrs by luminescence based analysis; assay type: cell-based
# [4] = biological target: T1, Protein cereblon/CREB-binding protein (Homo sapiens); assay: PROTAC activity at CRBN/HiBiT-tagged CBP in human HAP1 cells assessed as total cumulative degradation by measuring AUC at 10 nM measured over 24 hrs by luminescence based analysis; assay type: cell-based
# [5] = biological target: T1, Protein cereblon/CREB-binding protein (Homo sapiens); assay: PROTAC activity at CRBN/HiBiT-tagged CBP in human HAP1 cells assessed as total cumulative degradation by measuring AUC at 100 nM measured over 24 hrs by luminescence based analysis; assay type: cell-based
# [6] = biological target: T1, Protein cereblon/CREB-binding protein (Homo sapiens); assay: PROTAC activity at CRBN/HiBiT-tagged CBP in human HAP1 cells assessed as total cumulative degradation by measuring AUC at 1000 nM measured over 24 hrs by luminescence based analysis; assay type: cell-based
# [7] = biological target: T2, Protein cereblon/Histone acetyltransferase p300 (Homo sapiens) (UniProt Q09472+Q96SW2); assay: PROTAC activity at CRBN/HiBiT-tagged p300 in human HAP1 cells assessed as induction of p300 degradation by measuring degradation rate at 10 nM measured over 24 hrs by luminescence based analysis; assay type: cell-based
# T2 sequence (Q09472 2-2414 limits assumed): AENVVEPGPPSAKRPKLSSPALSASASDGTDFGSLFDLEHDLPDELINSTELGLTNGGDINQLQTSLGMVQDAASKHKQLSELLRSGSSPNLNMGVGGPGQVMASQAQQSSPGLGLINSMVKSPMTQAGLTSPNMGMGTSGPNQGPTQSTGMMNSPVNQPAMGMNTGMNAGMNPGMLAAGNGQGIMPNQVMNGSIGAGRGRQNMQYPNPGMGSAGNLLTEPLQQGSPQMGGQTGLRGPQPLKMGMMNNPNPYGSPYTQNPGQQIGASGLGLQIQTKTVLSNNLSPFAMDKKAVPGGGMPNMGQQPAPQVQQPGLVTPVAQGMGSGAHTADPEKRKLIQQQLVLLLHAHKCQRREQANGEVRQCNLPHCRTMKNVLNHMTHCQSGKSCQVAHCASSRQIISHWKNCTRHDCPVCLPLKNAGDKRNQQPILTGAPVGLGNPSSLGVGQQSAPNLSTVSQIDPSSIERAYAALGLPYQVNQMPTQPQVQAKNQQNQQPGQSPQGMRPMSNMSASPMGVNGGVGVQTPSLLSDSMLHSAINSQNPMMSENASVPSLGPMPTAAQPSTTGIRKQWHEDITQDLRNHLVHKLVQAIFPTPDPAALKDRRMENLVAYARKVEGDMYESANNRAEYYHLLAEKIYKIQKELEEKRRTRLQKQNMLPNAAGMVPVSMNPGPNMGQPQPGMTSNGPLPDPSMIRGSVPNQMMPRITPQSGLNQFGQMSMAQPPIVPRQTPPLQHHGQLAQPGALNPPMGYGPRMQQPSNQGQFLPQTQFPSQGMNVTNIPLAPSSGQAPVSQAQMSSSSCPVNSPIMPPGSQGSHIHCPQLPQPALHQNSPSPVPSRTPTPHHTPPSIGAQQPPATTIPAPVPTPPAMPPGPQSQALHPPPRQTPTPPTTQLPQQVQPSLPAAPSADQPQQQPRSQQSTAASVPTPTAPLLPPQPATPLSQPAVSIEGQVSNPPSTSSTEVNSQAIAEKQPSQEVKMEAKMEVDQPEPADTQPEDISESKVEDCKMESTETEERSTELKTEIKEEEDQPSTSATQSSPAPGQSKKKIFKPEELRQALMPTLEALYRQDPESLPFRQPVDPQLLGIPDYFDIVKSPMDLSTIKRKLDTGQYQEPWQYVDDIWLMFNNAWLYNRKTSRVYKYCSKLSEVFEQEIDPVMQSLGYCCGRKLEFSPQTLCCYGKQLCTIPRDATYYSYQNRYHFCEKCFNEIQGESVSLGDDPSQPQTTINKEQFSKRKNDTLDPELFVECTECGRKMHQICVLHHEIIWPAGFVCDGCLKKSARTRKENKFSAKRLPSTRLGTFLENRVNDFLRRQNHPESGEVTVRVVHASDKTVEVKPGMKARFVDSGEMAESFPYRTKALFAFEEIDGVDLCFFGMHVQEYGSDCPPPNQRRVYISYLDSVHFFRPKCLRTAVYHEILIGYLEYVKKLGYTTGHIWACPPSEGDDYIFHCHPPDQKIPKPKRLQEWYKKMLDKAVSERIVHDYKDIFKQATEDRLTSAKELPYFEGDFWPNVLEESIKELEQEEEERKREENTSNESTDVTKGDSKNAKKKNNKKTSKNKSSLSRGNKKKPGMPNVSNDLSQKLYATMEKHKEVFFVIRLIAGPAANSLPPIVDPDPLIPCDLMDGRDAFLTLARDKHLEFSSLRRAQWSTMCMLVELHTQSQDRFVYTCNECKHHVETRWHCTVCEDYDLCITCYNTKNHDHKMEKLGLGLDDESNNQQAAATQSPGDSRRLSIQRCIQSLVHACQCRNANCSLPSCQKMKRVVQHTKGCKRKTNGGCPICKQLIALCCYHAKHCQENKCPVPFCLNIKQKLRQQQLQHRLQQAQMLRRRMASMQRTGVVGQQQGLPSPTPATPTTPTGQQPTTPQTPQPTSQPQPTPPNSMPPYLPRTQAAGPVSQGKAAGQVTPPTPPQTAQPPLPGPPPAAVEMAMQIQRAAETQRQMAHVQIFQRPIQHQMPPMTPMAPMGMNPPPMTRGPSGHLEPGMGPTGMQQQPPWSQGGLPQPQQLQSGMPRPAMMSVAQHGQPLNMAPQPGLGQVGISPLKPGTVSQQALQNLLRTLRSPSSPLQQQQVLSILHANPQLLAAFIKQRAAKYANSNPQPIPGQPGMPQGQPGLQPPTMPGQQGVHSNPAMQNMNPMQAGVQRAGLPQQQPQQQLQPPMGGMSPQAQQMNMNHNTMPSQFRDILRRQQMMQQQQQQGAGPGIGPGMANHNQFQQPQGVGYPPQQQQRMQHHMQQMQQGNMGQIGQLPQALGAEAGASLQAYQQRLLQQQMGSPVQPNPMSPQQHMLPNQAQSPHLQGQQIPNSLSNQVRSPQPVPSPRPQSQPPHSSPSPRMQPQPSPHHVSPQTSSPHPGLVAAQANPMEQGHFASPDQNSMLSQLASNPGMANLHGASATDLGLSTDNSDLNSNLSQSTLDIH
# T2 sequence (Q96SW2 whole entry partner): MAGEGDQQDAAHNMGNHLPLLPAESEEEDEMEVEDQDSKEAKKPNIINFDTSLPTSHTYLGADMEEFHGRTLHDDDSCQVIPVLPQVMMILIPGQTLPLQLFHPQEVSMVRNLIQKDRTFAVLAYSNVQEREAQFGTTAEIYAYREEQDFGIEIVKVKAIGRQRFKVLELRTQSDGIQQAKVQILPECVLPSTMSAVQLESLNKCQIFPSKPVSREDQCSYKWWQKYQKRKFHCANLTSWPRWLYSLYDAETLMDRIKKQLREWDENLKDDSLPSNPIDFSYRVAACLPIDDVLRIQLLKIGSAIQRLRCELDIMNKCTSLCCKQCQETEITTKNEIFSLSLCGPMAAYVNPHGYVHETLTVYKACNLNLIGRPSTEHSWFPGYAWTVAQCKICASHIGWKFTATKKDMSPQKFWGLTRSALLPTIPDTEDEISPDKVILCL
# [8] = biological target: T2, Protein cereblon/Histone acetyltransferase p300 (Homo sapiens); assay: PROTAC activity at CRBN/HiBiT-tagged p300 in human HAP1 cells assessed as induction of p300 degradation by measuring degradation rate at 100 nM measured over 24 hrs by luminescence based analysis; assay type: cell-based
# [9] = biological target: T2, Protein cereblon/Histone acetyltransferase p300 (Homo sapiens); assay: PROTAC activity at CRBN/HiBiT-tagged p300 in human HAP1 cells assessed as induction of p300 degradation by measuring maximal efficacy at 10 nM measured over 24 hrs by luminescence based analysis relative to control; assay type: cell-based
# [10] = biological target: T2, Protein cereblon/Histone acetyltransferase p300 (Homo sapiens); assay: PROTAC activity at CRBN/HiBiT-tagged p300 in human HAP1 cells assessed as induction of p300 degradation by measuring maximal efficacy at 100 nM measured over 24 hrs by luminescence based analysis relative to control; assay type: cell-based
# [11] = biological target: T2, Protein cereblon/Histone acetyltransferase p300 (Homo sapiens); assay: PROTAC activity at CRBN/HiBiT-tagged p300 in human HAP1 cells assessed as total cumulative degradation by measuring AUC at 0.01 nM measured over 24 hrs by luminescence based analysis; assay type: cell-based
# [12] = biological target: T2, Protein cereblon/Histone acetyltransferase p300 (Homo sapiens); assay: PROTAC activity at CRBN/HiBiT-tagged p300 in human HAP1 cells assessed as total cumulative degradation by measuring AUC at 0.1 nM measured over 24 hrs by luminescence based analysis; assay type: cell-based
# [13] = biological target: T2, Protein cereblon/Histone acetyltransferase p300 (Homo sapiens); assay: PROTAC activity at CRBN/HiBiT-tagged p300 in human HAP1 cells assessed as total cumulative degradation by measuring AUC at 1 nM measured over 24 hrs by luminescence based analysis; assay type: cell-based
# [14] = biological target: T2, Protein cereblon/Histone acetyltransferase p300 (Homo sapiens); assay: PROTAC activity at CRBN/HiBiT-tagged p300 in human HAP1 cells assessed as total cumulative degradation by measuring AUC at 10 nM measured over 24 hrs by luminescence based analysis; assay type: cell-based
# [15] = biological target: T2, Protein cereblon/Histone acetyltransferase p300 (Homo sapiens); assay: PROTAC activity at CRBN/HiBiT-tagged p300 in human HAP1 cells assessed as total cumulative degradation by measuring AUC at 100 nM measured over 24 hrs by luminescence based analysis; assay type: cell-based
# [16] = biological target: T2, Protein cereblon/Histone acetyltransferase p300 (Homo sapiens); assay: PROTAC activity at CRBN/HiBiT-tagged p300 in human HAP1 cells assessed as total cumulative degradation by measuring AUC at 1000 nM measured over 24 hrs by luminescence based analysis; assay type: cell-based
# [17] = biological target: Protein cereblon/Bromodomain-containing protein 4 (Homo sapiens) (UniProt O60885+Q96SW2); assay: PROTAC activity at CRBN/HiBiT-tagged BRD4 in human HAP1 cells assessed as induction of BRD4 degradation measured over 24 hrs by luminescence based analysis; assay type: cell-based
# Protein cereblon/Bromodomain-containing protein 4 (Homo sapiens), sequence (Q96SW2 whole entry, looked up, other chains not shown): as the sequence (Q96SW2 whole entry partner) above
# [18] = biological target: T2, Protein cereblon/Histone acetyltransferase p300 (Homo sapiens); assay: Binding affinity to recombinant CRBN/p300 bromodomain (unknown origin) assessed as ternary complex formation at 10 to 100 nM by Alphascreen-based proximity assay; assay type: protein assay; conditions: dose 10-100 nM
# [19] = biological target: T1, Protein cereblon/CREB-binding protein (Homo sapiens); assay: Binding affinity to recombinant CRBN/CBP bromodomain (unknown origin) assessed as ternary complex formation at 10 to 100 nM by Alphascreen-based proximity assay; assay type: protein assay; conditions: dose 10-100 nM
# [20] = biological target: T2, Protein cereblon/Histone acetyltransferase p300 (Homo sapiens); assay: PROTAC activity at CRBN/HiBiT-tagged p300 in human HAP1 cells assessed as induction of p300 degradation by measuring degradation rate at 1000 nM measured over 24 hrs by luminescence based analysis; assay type: cell-based
# [21] = biological target: T2, Protein cereblon/Histone acetyltransferase p300 (Homo sapiens); assay: PROTAC activity at CRBN/HiBiT-tagged p300 in human HAP1 cells assessed as induction of p300 degradation by measuring maximal efficacy at 1000 nM measured over 24 hrs by luminescence based analysis relative to control; assay type: cell-based
# [22] = biological target: T1, Protein cereblon/CREB-binding protein (Homo sapiens); assay: PROTAC activity at CRBN/HiBiT-tagged CBP in human HAP1 cells assessed as induction of CBP degradation by measuring maximal efficacy at 1000 nM measured over 24 hrs by luminescence based analysis relative to control; assay type: cell-based
# [23] = biological target: T1, Protein cereblon/CREB-binding protein (Homo sapiens); assay: PROTAC activity at CRBN/HiBiT-tagged CBP in human HAP1 cells assessed as induction of CBP degradation by measuring degradation rate at 1000 nM measured over 24 hrs by luminescence based analysis; assay type: cell-based
# [24] = biological target: T1, Protein cereblon/CREB-binding protein (Homo sapiens); assay: PROTAC activity at CRBN/HiBiT-tagged CBP in human HAP1 cells assessed as induction of CBP degradation by measuring maximal efficacy at 0.1 nM measured over 24 hrs by luminescence based analysis relative to control; assay type: cell-based
# [25] = biological target: T1, Protein cereblon/CREB-binding protein (Homo sapiens); assay: PROTAC activity at CRBN/HiBiT-tagged CBP in human HAP1 cells assessed as induction of CBP degradation by measuring maximal efficacy at 1 nM measured over 24 hrs by luminescence based analysis relative to control; assay type: cell-based
# [26] = biological target: T1, Protein cereblon/CREB-binding protein (Homo sapiens); assay: PROTAC activity at CRBN/HiBiT-tagged CBP in human HAP1 cells assessed as induction of CBP degradation by measuring maximal efficacy at 10 nM measured over 24 hrs by luminescence based analysis relative to control; assay type: cell-based
# [27] = biological target: T1, Protein cereblon/CREB-binding protein (Homo sapiens); assay: PROTAC activity at CRBN/HiBiT-tagged CBP in human HAP1 cells assessed as induction of CBP degradation by measuring maximal efficacy at 100 nM measured over 24 hrs by luminescence based analysis relative to control; assay type: cell-based
# [28] = biological target: T1, Protein cereblon/CREB-binding protein (Homo sapiens); assay: PROTAC activity at CRBN/HiBiT-tagged CBP in human HAP1 cells assessed as induction of CBP degradation by measuring degradation rate at 1 nM measured over 24 hrs by luminescence based analysis; assay type: cell-based
# [29] = biological target: T1, Protein cereblon/CREB-binding protein (Homo sapiens); assay: PROTAC activity at CRBN/HiBiT-tagged CBP in human HAP1 cells assessed as induction of CBP degradation by measuring degradation rate at 10 nM measured over 24 hrs by luminescence based analysis; assay type: cell-based
# [30] = biological target: T1, Protein cereblon/CREB-binding protein (Homo sapiens); assay: PROTAC activity at CRBN/HiBiT-tagged CBP in human HAP1 cells assessed as induction of CBP degradation by measuring degradation rate at 100 nM measured over 24 hrs by luminescence based analysis; assay type: cell-based
# [31] = biological target: T2, Protein cereblon/Histone acetyltransferase p300 (Homo sapiens); assay: PROTAC activity at CRBN/HiBiT-tagged p300 in human HAP1 cells assessed as induction of p300 degradation by measuring degradation rate at 1 nM measured over 24 hrs by luminescence based analysis; assay type: cell-based
# [32] = biological target: T2, Protein cereblon/Histone acetyltransferase p300 (Homo sapiens); assay: PROTAC activity at CRBN/HiBiT-tagged p300 in human HAP1 cells assessed as induction of p300 degradation by measuring maximal efficacy at 1 nM measured over 24 hrs by luminescence based analysis relative to control; assay type: cell-based
SMILES,AUC [1],AUC [2],AUC [3],AUC [4],AUC [5],AUC [6],Activity [7] [h⁻¹],Activity [8] [h⁻¹],Emax [9] [%],AUC [11],AUC [12],AUC [13],AUC [14],AUC [15],AUC [16],Activity [17],Activity [18],Activity [19],Activity [20] [h⁻¹],Emax [21] [%],other results
CNC(=O)N1CCc2c(c(N3CCCc4cc(-c5cnn(CC(=O)NCCOCCOCCOCCOCCOCCOCCNc6ccc7c(c6)C(=O)N(C6CCC(=O)NC6=O)C7=O)c5)c(C(F)F)cc43)nn2C2CCOCC2)C1 (stereo not given),21.6,22.8,23.6,23,23.2,25,0.006,0.02,19,27.6,27,26.1,22.7,22.4,26.1,inactive,Active,Active,–,–,Emax [10]: 21%
CNC(=O)N1CCc2c(c(N3CCN(C(=O)NCCOCCOCCOCCOCCNc4ccc5c(c4)C(=O)N(C4CCC(=O)NC4=O)C5=O)c4cc(-c5cnn(C)c5)c(C(F)(F)F)cc43)nn2C2CCOCC2)C1 (stereo not given),24.1,24.4,24.7,25.1,24.6,24.2,–,–,–,27.2,27.3,27.7,26.9,25.5,22.1,inactive,Active,Active,0.009,26,–
CNC(=O)N1CCc2c(c(N3CCN(C(=O)NCCOCCNc4ccc5c(c4)C(=O)N(C4CCC(=O)NC4=O)C5=O)c4cc(-c5cnn(C)c5)c(C(F)(F)F)cc43)nn2C2CCOCC2)C1 (stereo not given),23.4,25,23.9,24.9,23.6,21.4,–,–,–,27.5,27.5,26.9,27,26.2,22.3,inactive,–,–,0.02,20,Emax [22]: 26%; Activity [23]: 0.036 h⁻¹
CNC(=O)N1CCc2c(c(N3CCCc4cc(-c5cnn(C)c5)c(C(F)F)cc43)nn2C2CCN(C(=O)CCOCCOCCOCCOCCOCCOCCNc3ccc4c(c3)C(=O)N(C3CCC(=O)NC3=O)C4=O)CC2)C1 (stereo not given),26.3,24.2,17.8,8.1,4.7,6.6,0.49,0.74,68,27.3,26.4,18.6,9.3,5.2,6,inactive,Active,Active,0.46,83,Emax [24]: 8.6%; Emax [25]: 33%; Emax [26]: 72%; Emax [27]: 86%; Emax [22]: 81%; Activity [28]: 0.27 h⁻¹; Activity [29]: 0.68 h⁻¹; Activity [30]: 0.79 h⁻¹; Activity [23]: 0.42 h⁻¹; Activity [31]: 0.19 h⁻¹; Emax [32]: 32%; Emax [10]: 83%

# Source: ChEMBL document CHEMBL5579809, “Exploration of bromodomain ligand-linker conjugation sites for efficient CBP/p300 heterobifunctional degrader activity” (Bioorg Med Chem Lett, 2024)
